Reference: PubChem BioAssay AID248 (DTP/NCI, 2004)
Values joined by “and” are separate entries in the source; they are usually repeats but may differ in a detail not shown here. Equal values may be shown once. Toxic doses and inconclusive results are not listed. Peptide text beside a SMILES is read from it.

Tested on: L1210 leukemia ip in BDF1 mice, survival T/C
Test: NCI In Vivo Anticancer Drug Screen. Data for tumor model L1210 Leukemia (intraperitoneal) in B6D2F1 (BDF1) mice
Details: endpoint: mean survival time, higher = longer survival
Outline: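 Transplanted-tumor mice were given test agent; controls received vehicle only. Survival readings from the two groups were divided (treated over control).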

[1] = dose: 100.0 mg/kg/injection, schedule: Q01DX001 (ip), vehicle: saline
[2] = dose: 200.0 mg/kg/injection, schedule: Q01DX001 (ip), vehicle: saline
[3] = dose: 400.0 mg/kg/injection, schedule: Q01DX001 (ip), vehicle: saline
[4] = dose: 100.0 mg/kg/injection, schedule: Q01DX009 (ip), vehicle: Klucel (hydroxypropylcellulose) (HPC)
[5] = dose: 200.0 mg/kg/injection, schedule: Q01DX009 (ip), vehicle: Klucel (hydroxypropylcellulose) (HPC)
[6] = dose: 400.0 mg/kg/injection, schedule: Q01DX009 (ip), vehicle: Klucel (hydroxypropylcellulose) (HPC)
[7] = dose: 100.0 mg/kg/injection, schedule: Q01DX001 (ip), vehicle: Klucel (hydroxypropylcellulose) (HPC)
[8] = dose: 100.0 mg/kg/injection, schedule: Q04DX003 (ip), vehicle: Klucel (hydroxypropylcellulose) (HPC)
[9] = dose: 200.0 mg/kg/injection, schedule: Q01DX001 (ip), vehicle: Klucel (hydroxypropylcellulose) (HPC)
[10] = dose: 200.0 mg/kg/injection, schedule: Q04DX003 (ip), vehicle: Klucel (hydroxypropylcellulose) (HPC)
[11] = dose: 400.0 mg/kg/injection, schedule: Q01DX001 (ip), vehicle: Klucel (hydroxypropylcellulose) (HPC)
[12] = dose: 400.0 mg/kg/injection, schedule: Q04DX003 (ip), vehicle: Klucel (hydroxypropylcellulose) (HPC)

## Nc1n[nH]c(=O)[nH]1
dose: 44.0 mg/kg/injection, schedule: Q03HX024 (ip), vehicle: saline
  T/C: 108 % of control
dose: 67.0 mg/kg/injection, schedule: Q03HX024 (ip), vehicle: saline
  T/C: 107 % of control
dose: 100.0 mg/kg/injection, schedule: Q01DX009 (ip), vehicle: saline
  T/C: 115 % of control
dose: 100.0 mg/kg/injection, schedule: Q03HX024 (ip), vehicle: saline
  T/C: 112 % of control
dose: 177.0 mg/kg/injection, schedule: Q01DX009 (ip), vehicle: saline
  T/C: 120 % of control
dose: 200.0 mg/kg/injection, schedule: Q01DX009 (ip), vehicle: saline
  T/C: 121 % of control
dose: 225.0 mg/kg/injection, schedule: Q03HX024 (ip), vehicle: saline
  T/C: 153 % of control
dose: 266.0 mg/kg/injection, schedule: Q01DX009 (ip), vehicle: saline
  T/C: 180 % of control
dose: 266.0 mg/kg/injection, schedule: Q04DX003 (ip), vehicle: saline
  T/C: 104 % of control
dose: 400.0 mg/kg/injection, schedule: Q01DX009 (ip), vehicle: saline
  T/C: 185 % of control
dose: 400.0 mg/kg/injection, schedule: Q04DX003 (ip), vehicle: saline
  T/C: 113 % of control
dose: 600.0 mg/kg/injection, schedule: Q01DX009 (ip), vehicle: saline
  T/C: 164 % of control and 186 % of control
dose: 600.0 mg/kg/injection, schedule: Q04DX003 (ip), vehicle: saline
  T/C: 118 % of control

## CC(C)(C)OOC(=O)CCCl
dose: 100.0 mg/kg/injection, schedule: Q04DX002 (ip), vehicle: saline with Tween-80
  T/C: 93 % of control
dose: 200.0 mg/kg/injection, schedule: Q04DX002 (ip), vehicle: saline with Tween-80
  T/C: 101 % of control
dose: 400.0 mg/kg/injection, schedule: Q04DX002 (ip), vehicle: saline with Tween-80
  T/C: 101 % of control

## CCCCCCCCc1cc2c(c3c1CCCC3)CCC1CCCCC21 (stereo not given)
[1]
  T/C: 104 % of control
[2]
  T/C: 98 % of control
[3]
  T/C: 101 % of control

## Cc1nc(N)[nH]c(=O)c1CCCNCc1ccco1
[1]
  T/C: 100 % of control
[2]
  T/C: 103 % of control
[3]
  T/C: 99 % of control

## COc1c2c(c(OC)c3ccccc13)C(=O)C1=C(CC=CC1)C2=O
dose: 50.0 mg/kg/injection, schedule: Q01DX005 (ip), vehicle: water
  T/C: 94 % of control
dose: 100.0 mg/kg/injection, schedule: Q01DX005 (ip), vehicle: water
  T/C: 87 % of control
dose: 200.0 mg/kg/injection, schedule: Q01DX005 (ip), vehicle: water
  T/C: 92 % of control

## CCCNC(=O)Nc1ccc(OC)cc1Cl
[4]
  T/C: 93 % of control
[5]
  T/C: 93 % of control
[6]
  T/C: 93 % of control

## COc1ccc(NC(=O)Nc2c(C)cccc2C)cc1
dose: 100.0 mg/kg/injection, schedule: Q01DX009 (ip), vehicle: gum acacia
  T/C: 97 % of control
dose: 100.0 mg/kg/injection, schedule: Q04DX003 (ip), vehicle: gum acacia
  T/C: 97 % of control
dose: 200.0 mg/kg/injection, schedule: Q01DX009 (ip), vehicle: gum acacia
  T/C: 97 % of control
dose: 200.0 mg/kg/injection, schedule: Q04DX003 (ip), vehicle: gum acacia
  T/C: 92 % of control
dose: 400.0 mg/kg/injection, schedule: Q01DX009 (ip), vehicle: gum acacia
  T/C: 92 % of control
dose: 400.0 mg/kg/injection, schedule: Q04DX003 (ip), vehicle: gum acacia
  T/C: 91 % of control

## Cn1c(=O)c2c(nc(OCC3CCCO3)n2C)n(C)c1=O (stereo not given)
[1]
  T/C: 106 % of control
[2]
  T/C: 100 % of control

## CCOC(=O)Nc1cc(N)c(N)c(NC(c2ccccc2)c2ccccc2)n1
dose: 100.0 mg/kg/injection, schedule: Q01DX001 (ip), vehicle: other
  T/C: 102 % of control
dose: 200.0 mg/kg/injection, schedule: Q01DX001 (ip), vehicle: other
  T/C: 104 % of control
dose: 400.0 mg/kg/injection, schedule: Q01DX001 (ip), vehicle: other
  T/C: 100 % of control

## CC(=O)c1c(C)[nH]c(C(=O)OC(C)(C)C)c1C
[7]
  T/C: 95 % of control
[8]
  T/C: 102 % of control
[9]
  T/C: 97 % of control
[10]
  T/C: 96 % of control
[11]
  T/C: 95 % of control
[12]
  T/C: 96 % of control

## CS(=O)(=O)SCc1ccc([N+](=O)[O-])cc1
dose: 15.0 mg/kg/injection, schedule: Q01DX001 (ip), vehicle: carboxymethylcellulose (CMC)
  T/C: 114 % of control
dose: 30.0 mg/kg/injection, schedule: Q01DX001 (ip), vehicle: carboxymethylcellulose (CMC)
  T/C: 101 % of control
dose: 60.0 mg/kg/injection, schedule: Q01DX001 (ip), vehicle: carboxymethylcellulose (CMC)
  T/C: 97 % of control

## CC(NC(=O)C(CCC(=O)NCC(=O)O)NC(=O)C(N)Cc1ccc(O)cc1)C(=O)NCC(=O)NC(Cc1ccc(O)cc1)C(=O)NC(CCC(=O)NCC(=O)O)C(=O)NC(C)C(=O)NCC(=O)NCC(=O)O (stereo not given) (H-YE(Gly)AGYE(Gly)AGG-OH; configuration not given here)
dose: 50.0 mg/kg/injection, schedule: Q01DX001 (ip), vehicle: saline
  T/C: 92 % of control
[1]
  T/C: 92 % of control
[2]
  T/C: 93 % of control

## O=Cc1ccc(N(c2ccccc2)c2ccccc2)cc1
[4]
  T/C: 102 % of control
[8]
  T/C: 96 % of control
[5]
  T/C: 91 % of control
[10]
  T/C: 100 % of control
[6]
  T/C: 94 % of control
[12]
  T/C: 94 % of control

## [O-][n+]1cc(-c2ccccc2)cc2ccccc21
[1]
  T/C: 96 % of control

## CCCCCCCCCCCCCCCC(=O)N(CCCN)CCCCCCCCCN(CCCN)C(=O)CCCCCCCCCCCCCCC
dose: 25.0 mg/kg/injection, schedule: Q01DX009 (ip), vehicle: saline
  T/C: 96 % of control
dose: 50.0 mg/kg/injection, schedule: Q01DX009 (ip), vehicle: saline
  T/C: 97 % of control
dose: 100.0 mg/kg/injection, schedule: Q04DX003 (ip), vehicle: saline
  T/C: 91 % of control

## CCCCN(C)N=Nc1ccc(Cl)cc1C(N)=O
[7]
  T/C: 102 % of control
[4]
  T/C: 110 % of control
[8]
  T/C: 109 % of control
[9]
  T/C: 107 % of control
[5]
  T/C: 105 % of control
[10]
  T/C: 96 % of control
[11]
  T/C: 98 % of control
[6]
  T/C: 105 % of control
[12]
  T/C: 93 % of control

## CCOc1ncc([N+](=O)[O-])cn1
[8]
  T/C: 101 % of control
[10]
  T/C: 114 % of control
[12]
  T/C: 103 % of control

## NC1C2C3CCC(C(C(=O)O)C3C(=O)O)C12 (stereo not given)
dose: 100.0 mg/kg/injection, schedule: Q04DX003 (ip), vehicle: saline with Tween-80
  T/C: 89 % of control
dose: 200.0 mg/kg/injection, schedule: Q04DX003 (ip), vehicle: saline with Tween-80
  T/C: 110 % of control
dose: 400.0 mg/kg/injection, schedule: Q04DX003 (ip), vehicle: saline with Tween-80
  T/C: 100 % of control

## CC1(C)OCC(C(O)C(O)C2COC(C)(C)O2)O1 (stereo not given)
dose: 100.0 mg/kg/injection, schedule: Q04DX002 (ip), vehicle: saline
  T/C: 96 % of control
dose: 200.0 mg/kg/injection, schedule: Q04DX002 (ip), vehicle: saline
  T/C: 104 % of control
dose: 400.0 mg/kg/injection, schedule: Q04DX002 (ip), vehicle: saline
  T/C: 101 % of control

## S=C(N/N=C/C(c1ccccc1)c1ccccc1)Nc1ccccc1
dose: 100.0 mg/kg/injection, schedule: Q01DX001 (ip), vehicle: saline with Tween-80
  T/C: 95 % of control
dose: 100.0 mg/kg/injection, schedule: Q01DX009 (ip), vehicle: saline with Tween-80
  T/C: 86 % of control
dose: 200.0 mg/kg/injection, schedule: Q01DX001 (ip), vehicle: saline with Tween-80
  T/C: 102 % of control
dose: 400.0 mg/kg/injection, schedule: Q01DX001 (ip), vehicle: saline with Tween-80
  T/C: 98 % of control
dose: 400.0 mg/kg/injection, schedule: Q01DX009 (ip), vehicle: saline with Tween-80
  T/C: 86 % of control

## Nc1ccc2c(c1)C(=O)c1c(F)c(F)c(F)c(F)c1-2
dose: 50.0 mg/kg/injection, schedule: Q01DX001 (ip), vehicle: carboxymethylcellulose (CMC)
  T/C: 97 % of control
dose: 100.0 mg/kg/injection, schedule: Q01DX001 (ip), vehicle: carboxymethylcellulose (CMC)
  T/C: 103 % of control
dose: 200.0 mg/kg/injection, schedule: Q01DX001 (ip), vehicle: carboxymethylcellulose (CMC)
  T/C: 97 % of control
dose: 400.0 mg/kg/injection, schedule: Q01DX001 (ip), vehicle: carboxymethylcellulose (CMC)
  T/C: 100 % of control

## Clc1ccc(CSc2ncc(Br)c(Nc3cc(Cl)ccc3Cl)n2)cc1
dose: 50.0 mg/kg/injection, schedule: Q01DX Z (ip), vehicle: methylcellulose (MC)
  T/C: 96 % of control
dose: 200.0 mg/kg/injection, schedule: Q01DX Z (ip), vehicle: methylcellulose (MC)
  T/C: 89 % of control
